Data on 14 compounds can be found in publication PMC9067983, “Identification of highly selective type II kinase inhibitors with chiral peptidomimetic tails” (Journal of Enzyme Inhibition and Medicinal Chemistry, 2022).

The target in assay [1] is T1, c-Src (Homo sapiens, UniProt P12931).
T1 construct: purchased Reaction Biology Corp
As to the kind of experiment: In vitro kinase assay (IC50). Format: biochemical. As for the experimental part: (§1) Full panel kinase profiling and kinase IC50 measurement were performed by using Reaction Biology Corp. (San Diego, USA).

The target of assay [2] is T2, Lck (Homo sapiens, UniProt P06239).
T2 construct: purchased Reaction Biology Corp
As to the kind of experiment: In vitro kinase assay (IC50). Format: biochemical. How it is done: as §1

Where a SMILES comes first, the peptide text is derived from it. [ ]: non-standard residue; d: D form. The star is where a group is joined. X1 = Cc1ccc(Nc2ncc3c(n2)N(C)C(=O)N(c2cc(C(=O)*)ccc2C)C3)cn1; Chg = N[C@H](C(=O)O)C1CCCCC1; Pip = O=C(O)[C@@H]1CCCCN1; Aze = O=C(O)[C@@H]1CCN1; Nva = CCC[C@H](N)C(=O)O; Aib = CC(C)(N)C(=O)O

T2 sequence (P06239 whole entry): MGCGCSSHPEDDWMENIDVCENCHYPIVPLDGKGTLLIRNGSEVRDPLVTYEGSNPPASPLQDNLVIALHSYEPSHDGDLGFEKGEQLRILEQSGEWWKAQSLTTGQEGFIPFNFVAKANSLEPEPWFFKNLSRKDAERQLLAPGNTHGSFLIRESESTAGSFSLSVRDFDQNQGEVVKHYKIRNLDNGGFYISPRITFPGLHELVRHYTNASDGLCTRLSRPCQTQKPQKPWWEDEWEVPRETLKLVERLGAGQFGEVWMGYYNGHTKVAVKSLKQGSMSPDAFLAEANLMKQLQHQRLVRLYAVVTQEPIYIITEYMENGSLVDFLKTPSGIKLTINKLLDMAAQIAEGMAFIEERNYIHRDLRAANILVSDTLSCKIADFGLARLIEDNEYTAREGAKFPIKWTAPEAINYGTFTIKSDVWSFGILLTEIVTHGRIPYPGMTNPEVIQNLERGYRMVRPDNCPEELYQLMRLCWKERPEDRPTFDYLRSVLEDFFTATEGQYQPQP
T1 sequence (P12931 whole entry): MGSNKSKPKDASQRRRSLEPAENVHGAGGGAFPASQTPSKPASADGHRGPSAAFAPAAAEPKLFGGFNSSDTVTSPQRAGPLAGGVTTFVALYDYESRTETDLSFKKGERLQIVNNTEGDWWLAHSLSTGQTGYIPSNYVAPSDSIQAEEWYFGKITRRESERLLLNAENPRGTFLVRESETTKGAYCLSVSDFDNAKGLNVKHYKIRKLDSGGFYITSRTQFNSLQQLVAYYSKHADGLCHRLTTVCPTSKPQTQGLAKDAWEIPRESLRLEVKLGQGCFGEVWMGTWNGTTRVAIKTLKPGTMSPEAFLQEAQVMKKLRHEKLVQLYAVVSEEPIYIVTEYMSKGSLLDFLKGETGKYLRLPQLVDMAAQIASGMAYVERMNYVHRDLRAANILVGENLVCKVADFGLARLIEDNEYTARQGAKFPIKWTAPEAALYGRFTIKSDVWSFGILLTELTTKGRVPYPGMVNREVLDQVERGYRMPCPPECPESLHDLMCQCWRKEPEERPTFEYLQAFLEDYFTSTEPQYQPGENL

One may read the IC50 as the concentration that inhibits the measured activity by half. For `Cc1ccc(Nc2ncc3c(n2)N(C)C(=O)N(c2cc(C(=O)N[C@H](C(=O)N4CCC[C@H]4C(=O)N[C@@H](Cc4ccccc4)C(=O)N[C@@H](CC(C)C)C(=O)N(C)C)C(C)C)ccc2C)C3)cn1` [7i, (S)-N-((S)-1-(((S)-1-(dimethylamino)-4-methyl-1-oxopentan-2-yl)amino)-1-oxo-3-phenylpropan-2-yl)-1-((4-methyl-3-(1-methyl-7-((6-methylpyridin-3-yl)amino)-2-oxo-1,4-dihydropyrimido[4,5-d]pyrimidin-3(2H)-yl)benzoyl)-L-valyl)pyrrolidine-2-carboxamide] (X1-VPFL-NMe2), the IC50 came out at 123 nM in assay [1] and 61.5 nM in assay [2].

`Cc1ccc(Nc2ncc3c(n2)N(C)C(=O)N(c2cc(C(=O)N[C@H](C(=O)N4CCCC[C@H]4C(=O)NC(C)(C)C(=O)N[C@@H](CC(C)C)C(=O)N(C)C)C(C)C)ccc2C)C3)cn1` [7j, (S)-N-(1-(((S)-1-(dimethylamino)-4-methyl-1-oxopentan-2-yl)amino)-2-methyl-1-oxopropan-2-yl)-1-((4-methyl-3-(1-methyl-7-((6-methylpyridin-3-yl)amino)-2-oxo-1,4-dihydropyrimido[4,5-d]pyrimidin-3(2H)-yl)benzoyl)-L-valyl)piperidine-2-carboxamide] (X1-V[Pip][Aib]L-NMe2): the IC50 in assay [1] came out at 586 nM; in assay [2], 18 nM.

Regarding `Cc1ccc(Nc2ncc3c(n2)N(C)C(=O)N(c2cc(C(=O)N[C@H](C(=O)N4CC[C@H]4C(=O)NC(C)(C)C(=O)N[C@@H](CC(C)C)C(=O)N(C)C)C(C)C)ccc2C)C3)cn1` [7k, (S)-N-(1-(((S)-1-(dimethylamino)-4-methyl-1-oxopentan-2-yl)amino)-2-methyl-1-oxopropan-2-yl)-1-((4-methyl-3-(1-methyl-7-((6-methylpyridin-3-yl)amino)-2-oxo-1,4-dihydropyrimido[4,5-d]pyrimidin-3(2H)-yl)benzoyl)-L-valyl)azetidine-2-carboxamide] (X1-V[Aze][Aib]L-NMe2), in assay [1], the IC50 was found to be 921 nM. Further, in assay [2], inhibition was half-maximal at 302 nM (IC50) and the “decrease of Lck/c-Src selectivity compared to 7a” value is over 10 fold.

`Cc1ccc(Nc2ncc3c(n2)N(C)C(=O)N(c2cc(C(=O)N[C@@H](Cc4ccccc4)C(=O)N4CCC[C@H]4C(=O)NC(C)(C)C(=O)N[C@H](C(=O)N(C)C)C(C)C)ccc2C)C3)cn1` [7l, (S)-N-(1-(((S)-1-(dimethylamino)-3-methyl-1-oxobutan-2-yl)amino)-2-methyl-1-oxopropan-2-yl)-1-((4-methyl-3-(1-methyl-7-((6-methylpyridin-3-yl)amino)-2-oxo-1,4-dihydropyrimido[4,5-d]pyrimidin-3(2H)-yl)benzoyl)-L-phenylalanyl)pyrrolidine-2-carboxamide] (X1-FP[Aib]V-NMe2): the IC50 in assay [1] is 1740 nM; in assay [2], 155 nM.

As to `Cc1ccc(Nc2ncc3c(n2)N(C)C(=O)N(c2cc(C(=O)N[C@@H](C)C(=O)N4CCC[C@H]4C(=O)NC(C)(C)C(=O)N[C@H](C(=O)N(C)C)C(C)C)ccc2C)C3)cn1` [7m, (S)-N-(1-(((S)-1-(dimethylamino)-3-methyl-1-oxobutan-2-yl)amino)-2-methyl-1-oxopropan-2-yl)-1-((4-methyl-3-(1-methyl-7-((6-methylpyridin-3-yl)amino)-2-oxo-1,4-dihydropyrimido[4,5-d]pyrimidin-3(2H)-yl)benzoyl)-L-alanyl)pyrrolidine-2-carboxamide] (X1-AP[Aib]V-NMe2), the IC50 in assay [1] was 3970 nM; in assay [2], 379 nM.

For `Cc1ccc(Nc2ncc3c(n2)N(C)C(=O)N(c2cc(C(=O)N[C@H](C(=O)N4CCC[C@H]4C(=O)NC(C)(C)C(=O)N[C@H](C(=O)N(C)C)C(C)C)C(C)C)ccc2C)C3)cn1` [7n, (S)-N-(1-(((S)-1-(dimethylamino)-3-methyl-1-oxobutan-2-yl)amino)-2-methyl-1-oxopropan-2-yl)-1-((4-methyl-3-(1-methyl-7-((6-methylpyridin-3-yl)amino)-2-oxo-1,4-dihydropyrimido[4,5-d]pyrimidin-3(2H)-yl)benzoyl)-L-valyl)pyrrolidine-2-carboxamide] (X1-VP[Aib]V-NMe2), the IC50 in assay [1] is 3140 nM; in assay [2], 727 nM.

Take `Cc1ccc(Nc2ncc3c(n2)N(C)C(=O)N(c2cc(C(=O)N[C@H](C(=O)N4CCC[C@@H]4C(=O)NC(C)(C)C(=O)N[C@H](C(=O)N(C)C)C(C)C)C(C)C)ccc2C)C3)cn1` [7o, (R)-N-(1-(((S)-1-(dimethylamino)-3-methyl-1-oxobutan-2-yl)amino)-2-methyl-1-oxopropan-2-yl)-1-((4-methyl-3-(1-methyl-7-((6-methylpyridin-3-yl)amino)-2-oxo-1,4-dihydropyrimido[4,5-d]pyrimidin-3(2H)-yl)benzoyl)-L-valyl)pyrrolidine-2-carboxamide] (X1-V[dP][Aib]V-NMe2): the IC50 in assay [1] is over 10000 nM; in assay [2], 1040 nM.

In the case of `CC[C@H](C)[C@H](NC(=O)c1ccc(C)c(N2Cc3cnc(Nc4ccc(C)nc4)nc3N(C)C2=O)c1)C(=O)N1CCC[C@H]1C(=O)NC(C)(C)C(=O)N[C@@H](CC(C)C)C(=O)N(C)C` [7p, (S)-N-(1-(((S)-1-(dimethylamino)-4-methyl-1-oxopentan-2-yl)amino)-2-methyl-1-oxopropan-2-yl)-1-((4-methyl-3-(1-methyl-7-((6-methylpyridin-3-yl)amino)-2-oxo-1,4-dihydropyrimido[4,5-d]pyrimidin-3(2H)-yl)benzoyl)-L-isoleucyl)pyrrolidine-2-carboxamide] (X1-IP[Aib]L-NMe2), the values for the IC50 in assay [1] and in assay [2] were 329 nM and 55.6 nM, respectively.

As for `Cc1ccc(Nc2ncc3c(n2)N(C)C(=O)N(c2cc(C(=O)N[C@@H](CC(C)C)C(=O)N4CCC[C@H]4C(=O)NC(C)(C)C(=O)N[C@@H](CC(C)C)C(=O)N(C)C)ccc2C)C3)cn1` [7q, (S)-N-(1-(((S)-1-(dimethylamino)-4-methyl-1-oxopentan-2-yl)amino)-2-methyl-1-oxopropan-2-yl)-1-((4-methyl-3-(1-methyl-7-((6-methylpyridin-3-yl)amino)-2-oxo-1,4-dihydropyrimido[4,5-d]pyrimidin-3(2H)-yl)benzoyl)-L-leucyl)pyrrolidine-2-carboxamide] (X1-LP[Aib]L-NMe2), the half-inhibitory concentration (IC50) in assay [1] worked out at 174 nM; in assay [2] it was 15.4 nM. For the same compound, in assay [2], the “selectivity for Lck over c-Src” value is reported as over 10 fold.

In the case of `Cc1ccc(Nc2ncc3c(n2)N(C)C(=O)N(c2cc(C(=O)NCC(=O)N4CCC[C@H]4C(=O)NC(C)(C)C(=O)N[C@@H](CC(C)C)C(=O)N(C)C)ccc2C)C3)cn1` [7r, (S)-N-(1-(((S)-1-(dimethylamino)-4-methyl-1-oxopentan-2-yl)amino)-2-methyl-1-oxopropan-2-yl)-1-((4-methyl-3-(1-methyl-7-((6-methylpyridin-3-yl)amino)-2-oxo-1,4-dihydropyrimido[4,5-d]pyrimidin-3(2H)-yl)benzoyl)glycyl)pyrrolidine-2-carboxamide] (X1-GP[Aib]L-NMe2), the 50% inhibitory concentration (IC50) stood at 577 nM in assay [1] and 216 nM in assay [2].

In the case of `Cc1ccc(Nc2ncc3c(n2)N(C)C(=O)N(c2cc(C(=O)N[C@H](C(=O)N4CCC[C@H]4C(=O)NC(C)(C)C(=O)N[C@@H](CC(C)C)C(=O)N(C)C)C4CCCCC4)ccc2C)C3)cn1` [7s, (S)-1-((S)-2-cyclohexyl-2-(4-methyl-3-(1-methyl-7-((6-methylpyridin-3-yl)amino)-2-oxo-1,4-dihydropyrimido[4,5-d]pyrimidin-3(2H)-yl)benzamido)acetyl)-N-(1-(((S)-1-(dimethylamino)-4-methyl-1-oxopentan-2-yl)amino)-2-methyl-1-oxopropan-2-yl)pyrrolidine-2-carboxamide] (X1-[Chg]P[Aib]L-NMe2), the half-inhibitory concentration (IC50) in assay [1] stood at 435 nM. In addition, in assay [2], half-maximal inhibition (IC50) was put at 36 nM and the “selectivity for Lck over c-Src” value is given as over 10 fold.

As for `CCC[C@H](NC(=O)c1ccc(C)c(N2Cc3cnc(Nc4ccc(C)nc4)nc3N(C)C2=O)c1)C(=O)N1CCC[C@H]1C(=O)NC(C)(C)C(=O)N[C@@H](CC(C)C)C(=O)N(C)C` [7t, (S)-N-(1-(((S)-1-(dimethylamino)-4-methyl-1-oxopentan-2-yl)amino)-2-methyl-1-oxopropan-2-yl)-1-((S)-2-(4-methyl-3-(1-methyl-7-((6-methylpyridin-3-yl)amino)-2-oxo-1,4-dihydropyrimido[4,5-d]pyrimidin-3(2H)-yl)benzamido)pentanoyl)pyrrolidine-2-carboxamide] (X1-[Nva]P[Aib]L-NMe2), the concentration for half-maximal inhibition (IC50) is 477 nM in assay [1] and 70.8 nM in assay [2].

Turning to `Cc1ccc(Nc2ncc3c(n2)N(C)C(=O)N(c2cc(C(=O)N[C@H](C(=O)N4CCC[C@H]4C(=O)NC(C)(C)C(=O)NCC(=O)N(C)C)C(C)C)ccc2C)C3)cn1` [7u, (S)-N-(1-((2-(dimethylamino)-2-oxoethyl)amino)-2-methyl-1-oxopropan-2-yl)-1-((4-methyl-3-(1-methyl-7-((6-methylpyridin-3-yl)amino)-2-oxo-1,4-dihydropyrimido[4,5-d]pyrimidin-3(2H)-yl)benzoyl)-L-valyl)pyrrolidine-2-carboxamide] (X1-VP[Aib]G-NMe2), the results for the 50% inhibitory concentration (IC50) in assay [1] and in assay [2] were 1140 nM and 174 nM, respectively.

As to `Cc1ccc(Nc2ncc3c(n2)N(C)C(=O)N(c2cc(C(=O)N[C@H](C(=O)N4CCC[C@@H]4C(=O)N[C@H](C(=O)N[C@H](C)c4ccccc4)C(C)C)C(C)C)ccc2C)C3)cn1` [7v, (R)-N-((S)-3-methyl-1-oxo-1-(((R)-1-phenylethyl)amino)butan-2-yl)-1-((4-methyl-3-(1-methyl-7-((6-methylpyridin-3-yl)amino)-2-oxo-1,4-dihydropyrimido[4,5-d]pyrimidin-3(2H)-yl)benzoyl)-L-valyl)pyrrolidine-2-carboxamide], the half-inhibitory concentration (IC50) in assay [1] stood at 5630 nM; in assay [2], 403 nM.
